According to the supplement of paper PMC10307832:

What was measured:
Test in all cases: relative viability (nuclei count vs DMSO), 5 days (fraction); higher = more cells survive
[1] = compound: C1=CC=C2C(=C1)C=CC(=C2SSC3=C(C=CC4=CC=CC=C43)O)O [IPA-3] + CCNC(=O)c1noc(-c2cc(C(C)C)c(O)cc2O)c1-c1ccc(CN2CCOCC2)cc1 [Luminespib] (partner 0.01 µM)
Summary of the method: (§1)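 Each reported value is a median over duplicate plates. It expresses relative viability: treated-well nuclei count divided by vehicle-well nuclei count. Lung cancer cell lines in 1536-well plates were dosed by pin tool a day after seeding, alone with one drug or with a fixed anchor-drug dose plus five library-drug doses (not always all listed) in √10 steps, and nuclei were counted after 5 days.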

[2] = compound: C1=CC=C2C(=C1)C=CC(=C2SSC3=C(C=CC4=CC=CC=C43)O)O [IPA-3] + CS(=O)(=O)CCNCc1ccc(-c2ccc3ncnc(Nc4ccc(OCc5cccc(F)c5)c(Cl)c4)c3c2)o1 [Lapatinib] (partner 2 µM)
Summary of the method: as §1

[3] = compound: Cc1ccc(-n2nc(C(C)(C)C)cc2NC(=O)Nc2ccc(OCCN3CCOCC3)c3ccccc23)cc1 [Doramapimod] + CC1(C)CCC(c2ccc(Cl)cc2)=C(CN2CCN(c3ccc(C(=O)NS(=O)(=O)c4ccc(N[C@H](CCN5CCOCC5)CSc5ccccc5)c(S(=O)(=O)C(F)(F)F)c4)cc3)CC2)C1 [Navitoclax] (partner 0.5 µM)
Summary of the method: as §1

[4] = compound: Cn1c(Nc2ccc(C(F)(F)F)cc2)nc2cc(Oc3ccnc(-c4ncc(C(F)(F)F)[nH]4)c3)ccc21 [RAF265] + COc1cccc2cc(-c3nc([C@H]4CC[C@H](C(=O)O)CC4)n4ncnc(N)c34)[nH]c12 [OSI-027] (partner 0.5 µM)
Summary of the method: as §1

Cell Line	relative viability ([1]; first compound 0.2 µM)	relative viability ([1]; first compound 0.6325 µM)	relative viability ([1]; first compound 2 µM)	relative viability ([1]; first compound 6.325 µM)	relative viability ([1]; first compound 20 µM)	relative viability ([2]; first compound 0.2 µM)	relative viability ([2]; first compound 0.6325 µM)	relative viability ([2]; first compound 2 µM)	relative viability ([2]; first compound 6.325 µM)	relative viability ([2]; first compound 20 µM)	relative viability ([3]; first compound 0.02 µM)	relative viability ([3]; first compound 0.06325 µM)	relative viability ([3]; first compound 0.2 µM)	relative viability ([3]; first compound 0.6325 µM)	relative viability ([3]; first compound 2 µM)	relative viability ([4]; first compound 0.01 µM)	relative viability ([4]; first compound 0.03162 µM)	relative viability ([4]; first compound 0.1 µM)	relative viability ([4]; first compound 0.3162 µM)	relative viability ([4]; first compound 1 µM)
BEN	0.387	0.439	0.386	0.576	0.472	0.749	0.673	0.832	0.735	0.677	0.0531	0.0454	0.0875	0.0584	0.0743	0.261	0.29	0.312	0.311	0.293
NCI-H3122	0.0957	0.0861	0.108	0.074	0.116	1.02	0.996	0.993	1.09	0.946	1.03	0.992	1	1.09	0.914	0.971	1.1	0.948		0.42
SK-MES-1	0.753	0.691	0.831	0.782	0.808	0.524	0.431	0.487	0.423	0.449	1.16	1.25	1.23	1.25	0.99	0.544	0.355	0.186	0.223	0.187
HOP-62	1.12	0.919	0.963	0.855	1.11	1.2	0.935	0.918	1.13	1.16	1.1	1.1	1.17	1.04	1.05	0.807	0.774	0.698	0.731	0.631
NCI-H2347	0.525	0.0323	0.357	0.269	0.45	1.08	0.938	0.99	0.945	0.935	0.947	0.726	0.793	0.761	0.821	0.418	0.341	0.44	0.35	0.278
LXF-289	0.844	0.648	0.646	0.814	0.691	0.976	0.869	0.973	0.941	0.931	0.954	1	0.939	0.903	0.942	0.836	0.813	0.59	0.326	0.2
NCI-H1793	0.192	0.381	0.14	0.462	0.16	0.834	0.539	0.909	0.776	0.702	0.545	0.303	0.378	0.416	0.502	0.308	0.297	0.224		0.188
LU99A	0.295	0.179	0.292	0.206	0.214	0.934	0.95	1.05	0.922	0.943	0.662	0.645	0.818	0.977	0.798	0.299	0.274	0.27	0.258	0.205
PC-14	0.165	0.151	0.189	0.161	0.142	0.419	0.331	0.328	0.328	0.407	1.02	1.02	0.935	1.09	0.799	0.813	0.734	0.787		0.48
NCI-H2085	0.475	0.411	0.502	0.432	0.5	0.931	0.723	0.741	0.712	0.825	1.22	1.05	1.07	1.3	1.2	0.948	0.68	0.841	0.552	0.83
NCI-H2170	0.691	0.574	0.772	0.748	0.683	0.269	0.259	0.274	0.274	0.267	0.512	0.495	0.539	0.601	0.478	0.74	0.512	0.623	0.333	0.452
NCI-H1395	0.726	0.671	0.6	0.601	0.699	0.994	0.86	0.903	0.999	1.29	1.17	1.12	1.1	1.12	1.06	0.72	0.571	0.638	0.537	0.487
NCI-H2126	0.998	0.819	0.921	0.902	1.1	0.792	0.76	0.771	0.75	0.792	0.791	0.843	0.743	0.881	0.738	0.77	0.724	0.718	0.582	0.437
H3255	1.03	0.757	0.782	0.871	0.889	0.213	0.277	0.184	0.2	0.23	0.531	0.586	0.553	0.636	0.479	0.741	0.601	0.563		0.473
HCC-15	0.625	0.209	0.253	0.514	0.417	1.08	0.77	0.806	0.868	0.958	0.657	0.629	0.726	0.691	0.634	0.674	0.605	0.566	0.26	0.304
